According to patent US20240082347A1, “TREATMENT OF CORONAVIRUS” (priority 2021, published 2024):
“Also recorded” adds a separate entry of the source.

Key:
[1] = system: SARS-CoV-2 binding to Human Aortic Endothelial Cells (HAoEC); format: cell-based
[2] = molecular target: T1, Recombinant integrin αVβ3 (binding of SARS-CoV-2 spike protein) (Homo sapiens, UniProt P05106+P06756); assay: Fluorescent-based protein interaction assay, spike protein and αVβ3; conditions: FIG. 8
T1 construct: purchased BioTechne 3050-AV-050
T1 sequence (P06756 31-992 limits assumed): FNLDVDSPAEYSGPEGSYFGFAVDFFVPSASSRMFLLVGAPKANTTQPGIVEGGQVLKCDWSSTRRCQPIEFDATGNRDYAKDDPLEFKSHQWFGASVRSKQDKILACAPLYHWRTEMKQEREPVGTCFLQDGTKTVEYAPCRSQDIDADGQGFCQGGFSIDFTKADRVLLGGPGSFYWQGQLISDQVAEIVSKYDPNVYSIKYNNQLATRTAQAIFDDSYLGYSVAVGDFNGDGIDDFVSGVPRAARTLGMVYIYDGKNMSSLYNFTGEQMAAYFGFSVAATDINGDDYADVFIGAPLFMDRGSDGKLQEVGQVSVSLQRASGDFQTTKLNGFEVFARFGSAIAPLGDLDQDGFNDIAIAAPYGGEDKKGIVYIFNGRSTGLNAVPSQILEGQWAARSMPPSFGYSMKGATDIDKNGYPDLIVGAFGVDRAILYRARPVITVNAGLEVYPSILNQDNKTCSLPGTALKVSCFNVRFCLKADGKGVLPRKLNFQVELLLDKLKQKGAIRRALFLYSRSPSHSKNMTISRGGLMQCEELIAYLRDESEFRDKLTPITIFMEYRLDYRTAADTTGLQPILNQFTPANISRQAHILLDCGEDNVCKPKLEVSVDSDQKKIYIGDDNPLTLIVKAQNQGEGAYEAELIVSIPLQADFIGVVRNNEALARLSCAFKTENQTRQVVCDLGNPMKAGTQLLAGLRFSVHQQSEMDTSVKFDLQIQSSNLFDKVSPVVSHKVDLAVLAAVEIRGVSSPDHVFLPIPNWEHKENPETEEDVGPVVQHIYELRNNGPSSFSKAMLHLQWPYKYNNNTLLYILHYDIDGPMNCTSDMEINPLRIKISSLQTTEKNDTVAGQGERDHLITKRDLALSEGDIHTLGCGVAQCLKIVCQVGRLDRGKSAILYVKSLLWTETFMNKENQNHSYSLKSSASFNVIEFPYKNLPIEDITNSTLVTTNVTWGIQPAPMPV
T1 sequence (P05106 27-718 limits assumed): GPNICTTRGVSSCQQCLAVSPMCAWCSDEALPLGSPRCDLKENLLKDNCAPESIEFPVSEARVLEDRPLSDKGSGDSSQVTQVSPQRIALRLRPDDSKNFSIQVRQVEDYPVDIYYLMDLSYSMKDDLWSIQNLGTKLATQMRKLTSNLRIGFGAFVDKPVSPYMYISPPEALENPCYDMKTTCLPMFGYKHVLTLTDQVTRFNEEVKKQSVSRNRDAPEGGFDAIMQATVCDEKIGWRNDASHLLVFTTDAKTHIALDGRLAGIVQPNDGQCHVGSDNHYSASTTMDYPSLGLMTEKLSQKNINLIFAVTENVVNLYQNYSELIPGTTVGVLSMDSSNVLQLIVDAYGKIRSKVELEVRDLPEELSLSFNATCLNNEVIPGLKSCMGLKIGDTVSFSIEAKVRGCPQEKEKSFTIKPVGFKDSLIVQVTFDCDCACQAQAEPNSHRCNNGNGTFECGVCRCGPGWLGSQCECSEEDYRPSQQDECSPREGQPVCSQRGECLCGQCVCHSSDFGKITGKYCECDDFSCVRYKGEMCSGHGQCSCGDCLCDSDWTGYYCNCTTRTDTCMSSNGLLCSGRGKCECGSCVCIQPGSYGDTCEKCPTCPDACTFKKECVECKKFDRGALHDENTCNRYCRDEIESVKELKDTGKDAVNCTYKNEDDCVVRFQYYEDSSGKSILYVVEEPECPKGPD

[3] = system: SARS-CoV-2 binding to human colorectal epithelial cells (Caco-2); format: cell-based
[4] = system: sheared HAoEC; assay: Transwell permeability assay (FITC-Dextran) after SARS-CoV-2 infection; format: cell-based, human; conditions: 0.0005 μM; SARS-CoV-2 infection 24 hours; FIG. 5A
[5] = system: VE-Cadherin in endothelial cells; assay: SDS-PAGE and Western blot of VE-Cadherin after ex vivo infection assay; format: cell-based, human; conditions: healthy, infected and treated cells; 0.0005 μM
Method: Following the ex vivo infection assay, endothelial cells were lysed in RIPA buffer and stored at −20° C. until use. Samples were separated on a 10% SDS-PAGE gel. Following this, proteins were transferred onto a nitrocellulose membrane and blocked for 1 hour using 5% skimmed milk. The membrane was probed using anti-VE Cadherin primary antibody (Clone: F-8, Cat. No: sc-9989, 1:200, SantaCruz) and anti-GAPDH primary antibody (6000-4-1 mouse mAB, 1:2000, ProteinTech), overnight at 4° C. Anti-mouse IgG secondary antibodies (sc525405, 1:5000, SantaCruz) were used the following day. Proteins were detected using chemiluminescence.

[6] = system: VE-Cadherin expression on sheared HAoEC; format: cell-based, human; conditions: 0.0005 μM

SMILES | viral (SARS-CoV-2) attachment to human vascular endothelial cells [1] | recombinant spike protein binding to integrin αVβ3, comparison of GLPG0187 with Cilengitide [2] | SARS-CoV-2 binding to human colorectal epithelial cells [3] | SARS-CoV-2 binding to endothelial cells, dose response [1] | virus (SARS-CoV-2) attachment to human vascular endothelial cells [1] | endothelial barrier permeability (FITC-Dextran, 40 kDa) [4] | Total VE-Cadherin [5] | VE-Cadherin surface expression (mean fluorescence), marker of barrier integrity [6] | internalisation of VE-Cadherin following SARS-CoV-2 infection [6]
CNc1cccc(CCOc2ccc3c(c2)CN(CC(F)(F)F)C(=O)[C@H](CC(=O)O)C3)n1 [SB-273005] | failed to inhibit viral (SARS-CoV-2) attachment to human vascular endothelial cells; also recorded: unsuccessful at reducing SARS-CoV-2 binding to human endothelial cells | – | – | – | – | – | – | – | –
COc1ccc(S(=O)(=O)N[C@@H](CNc2nc(C)nc(N3CCC(c4ccc5c(n4)NCCC5)CC3)c2C)C(=O)O)cc1 [GLPG0187] | failed to inhibit viral (SARS-CoV-2) attachment to human vascular endothelial cells | Cilengitide is significantly more effective | – | – | – | – | – | – | –
CC(C)[C@H]1C(=O)N[C@@H](CCCN=C(N)N)C(=O)NCC(=O)N[C@@H](CC(=O)O)C(=O)N[C@H](Cc2ccccc2)C(=O)N1C [Cilengitide, cyclo(-RGDf(NMe)V-)] | – | – | effectively reduces SARS-CoV-2 binding to human colorectal epithelial cells | in a dose-dependent manner; also recorded: significantly prevents both attachment to the host and disruption of barrier integrity; also recorded: Statistical significance was found between the no drug control and each Cilengitide treated group | dose dependently inhibits virus (SARS-CoV-2) attachment to human vascular endothelial cells | limited the occurrence of barrier permeability; also recorded: restored after treating cells with Cilengitide | Total VE-Cadherin remains consistent | prevented VE-cadherin reduction during infection; also recorded: returning VE-cadherin levels back to uninfected levels; also recorded: re-established the barrier integrity; also recorded: barrier permeability was restored back to uninfected levels | internalisation of VE-Cadherin is prevented
